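Compound exposure: 48 hours, 5 concentrations, 96-well plates. GI50: concentration for 50% inhibition of growth.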 Active and inactive are the calls of the source. No stated cut-off is given here; in the data, active = GI50 up to about 1.1 µM and inactive = higher.
Key:
Experiment in all cases: DTP human tumour cell line panel, 48 h
SK-MEL-2 = test system: SK-MEL-2
HL-60 = test system: HL-60
SF-539 = test system: SF-539
SR = test system: SR
SF-268 = test system: SF-268
K562 = test system: K562
SN12C = test system: SN12C
UACC-257 = test system: UACC-257
SF-295 = test system: SF-295
U-251 = test system: U-251
HCT-15 = test system: HCT-15
SK-MEL-28 = test system: SK-MEL-28
EKVX = test system: EKVX
OVCAR-8 = test system: OVCAR-8
NCI-H522 = test system: NCI-H522
OVCAR-3 = test system: OVCAR-3
SNB-19 = test system: SNB-19
CAKI-1 = test system: CAKI-1
KM12 = test system: KM12
UACC-62 = test system: UACC-62
DMS-114 = test system: DMS-114
DMS-273 = test system: DMS-273
M14 = test system: M14
SK-MEL-5 = test system: SK-MEL-5
SNB-78 = test system: SNB-78
NCI-H460 = test system: NCI-H460
MOLT-4 = test system: MOLT-4
HOP-62 = test system: HOP-62
M19-MEL = test system: M19-MEL
ACHN = test system: ACHN
Malme-3M = test system: Malme-3M
A498 = test system: A498
HCC 2998 = test system: HCC 2998
CCRF-CEM = test system: CCRF-CEM
HT-29 = test system: HT-29
786-0 = test system: 786-0
NCI-H226 = test system: NCI-H226
A549 = test system: A549
UO-31 = test system: UO-31
TK-10 = test system: TK-10
OVCAR-4 = test system: OVCAR-4
NCI-H23 = test system: NCI-H23
SW-620 = test system: SW-620
HCT-116 = test system: HCT-116
OVCAR-5 = test system: OVCAR-5
RXF 393 = test system: RXF 393
SK-OV-3 = test system: SK-OV-3
DLD-1 = test system: DLD-1
HOP-92 = test system: HOP-92
RPMI-8226 = test system: RPMI-8226
XF498 = test system: XF498
LXFL 529 = test system: LXFL 529
COLO 205 = test system: COLO 205
IGROV-1 = test system: IGROV-1
SNB-75 = test system: SNB-75
KM-20L2 = test system: KM-20L2
LOX IMVI = test system: LOX IMVI

Cc1ccccc1-n1c(C)nc2c1C(=O)c1ccccc1C2=O
GI50 (SK-MEL-2): > 100 µM (inactive)
GI50 (HL-60): 20.9 µM (inactive)
GI50 (SF-539): 28.2 µM (inactive)
GI50 (SR): 38.9 µM (inactive)
GI50 (SF-268): 67.5 µM (inactive)
GI50 (K562): 37.7 µM (inactive)
GI50 (SN12C): 52.4 µM (inactive)
GI50 (UACC-257): 35.2 µM (inactive)
GI50 (SF-295): 67 µM (inactive)
GI50 (U-251): 72.1 µM (inactive)
GI50 (HCT-15): 34.8 µM
GI50 (SK-MEL-28): > 100 µM (inactive)
GI50 (EKVX): > 100 µM (inactive)
GI50 (OVCAR-8): 47.9 µM (inactive)
GI50 (NCI-H522): 21.2 µM (inactive)
GI50 (OVCAR-3): 24.8 µM (inactive)
GI50 (SNB-19): 55.5 µM (inactive)
GI50 (CAKI-1): 42.7 µM (inactive)
GI50 (KM12): 58.9 µM (inactive)
GI50 (UACC-62): 47.1 µM (inactive)
GI50 (DMS-114): 31.1 µM (inactive)
GI50 (DMS-273): 42.5 µM (inactive)
GI50 (M14): 42 µM (inactive)
GI50 (SK-MEL-5): 22.1 µM (inactive)
GI50 (SNB-78): 58.2 µM (inactive)
GI50 (NCI-H460): 36.1 µM (inactive)
GI50 (MOLT-4): 32 µM (inactive)
GI50 (HOP-62): > 100 µM (inactive)
GI50 (M19-MEL): 22.8 µM (inactive)
GI50 (ACHN): 53.3 µM (inactive)
GI50 (Malme-3M): 15.3 µM (inactive)
GI50 (A498): > 100 µM (inactive)
GI50 (HCC 2998): 37.1 µM (inactive)
GI50 (CCRF-CEM): 50.2 µM (inactive)
GI50 (HT-29): 37.2 µM (inactive)
GI50 (786-0): 44.8 µM (inactive)
GI50 (NCI-H226): 48.3 µM (inactive)
GI50 (A549): 54.6 µM (inactive)
GI50 (UO-31): 39.2 µM (inactive)
GI50 (TK-10): > 100 µM (inactive)
GI50 (OVCAR-4): 27.5 µM (inactive)
GI50 (NCI-H23): 35.4 µM (inactive)
GI50 (SW-620): 40.5 µM (inactive)
GI50 (HCT-116): 35.1 µM (inactive)
GI50 (OVCAR-5): 72.3 µM (inactive)
GI50 (RXF 393): > 100 µM (inactive)

O=C1CNS(=O)(=O)N1
GI50 (SK-OV-3): > 100 µM (inactive)
GI50 (SK-MEL-2): > 100 µM (inactive)
GI50 (HL-60): > 100 µM (inactive)
GI50 (SF-539): > 100 µM (inactive)
GI50 (SR): > 100 µM (inactive)
GI50 (SF-268): > 100 µM (inactive)
GI50 (K562): > 100 µM (inactive)
GI50 (SN12C): > 100 µM (inactive)
GI50 (DLD-1): > 100 µM (inactive)
GI50 (UACC-257): > 100 µM (inactive)
GI50 (SF-295): > 100 µM (inactive)
GI50 (HOP-92): > 100 µM (inactive)
GI50 (RPMI-8226): > 100 µM (inactive)
GI50 (SK-MEL-28): > 100 µM (inactive)
GI50 (EKVX): > 100 µM (inactive)
GI50 (OVCAR-8): > 100 µM (inactive)
GI50 (NCI-H522): > 100 µM (inactive)
GI50 (OVCAR-3): > 100 µM (inactive)
GI50 (SNB-19): > 100 µM (inactive)
GI50 (CAKI-1): > 100 µM (inactive)
GI50 (KM12): > 100 µM (inactive)
GI50 (UACC-62): > 100 µM (inactive)
GI50 (DMS-114): > 100 µM (inactive)
GI50 (XF498): > 100 µM (inactive)
GI50 (DMS-273): > 100 µM (inactive)
GI50 (LXFL 529): > 100 µM (inactive)
GI50 (COLO 205): > 100 µM (inactive)
GI50 (M14): > 100 µM (inactive)
GI50 (IGROV-1): > 100 µM (inactive)
GI50 (SNB-78): > 100 µM (inactive)
GI50 (MOLT-4): > 100 µM (inactive)
GI50 (HOP-62): > 100 µM (inactive)
GI50 (M19-MEL): > 100 µM (inactive)
GI50 (Malme-3M): > 100 µM (inactive)
GI50 (A498): > 100 µM (inactive)
GI50 (SNB-75): > 100 µM (inactive)
GI50 (HCC 2998): > 100 µM (inactive)
GI50 (CCRF-CEM): > 100 µM (inactive)
GI50 (HT-29): > 100 µM (inactive)
GI50 (786-0): > 100 µM (inactive)
GI50 (NCI-H226): 14.5 µM (inactive)
GI50 (A549): > 100 µM (inactive)
GI50 (UO-31): > 100 µM (inactive)
GI50 (TK-10): > 100 µM (inactive)
GI50 (OVCAR-4): > 100 µM (inactive)
GI50 (NCI-H23): > 100 µM (inactive)
GI50 (SW-620): > 100 µM (inactive)
GI50 (HCT-116): > 100 µM (inactive)

COc1cccc(N2C(=O)[C@H]3CC(C)c4c([nH]c5ccccc45)[C@H]3C2=O)c1 (stereo partly specified)
GI50 (SK-OV-3): 27.7 µM (inactive)
GI50 (SK-MEL-2): 27.5 µM (inactive)
GI50 (HL-60): > 100 µM (inactive)
GI50 (SF-539): 29.1 µM (inactive)
GI50 (SF-268): > 100 µM (inactive)
GI50 (K562): 46 µM (inactive)
GI50 (SN12C): 78 µM (inactive)
GI50 (DLD-1): 80.5 µM (inactive)
GI50 (UACC-257): 42.9 µM (inactive)
GI50 (SF-295): 23.3 µM (inactive)
GI50 (U-251): 38.5 µM (inactive)
GI50 (HCT-15): > 100 µM
GI50 (HOP-92): 20.7 µM (inactive)
GI50 (KM-20L2): > 100 µM (inactive)
GI50 (RPMI-8226): 38.9 µM (inactive)
GI50 (SK-MEL-28): 62.4 µM (inactive)
GI50 (EKVX): > 100 µM (inactive)
GI50 (OVCAR-8): 50 µM (inactive)
GI50 (NCI-H522): 24.9 µM (inactive)
GI50 (OVCAR-3): 40.1 µM (inactive)
GI50 (SNB-19): 28.4 µM (inactive)
GI50 (CAKI-1): 39.6 µM (inactive)
GI50 (KM12): 57.5 µM (inactive)
GI50 (UACC-62): 39.4 µM (inactive)
GI50 (XF498): 55.7 µM (inactive)
GI50 (DMS-273): 79.4 µM (inactive)
GI50 (LXFL 529): 42.8 µM (inactive)
GI50 (COLO 205): 36.1 µM (inactive)
GI50 (M14): > 100 µM (inactive)
GI50 (IGROV-1): > 100 µM (inactive)
GI50 (SK-MEL-5): 63.8 µM (inactive)
GI50 (SNB-78): 33.3 µM (inactive)
GI50 (NCI-H460): > 100 µM (inactive)
GI50 (MOLT-4): 74.1 µM (inactive)
GI50 (HOP-62): 16.8 µM (inactive)
GI50 (M19-MEL): 86.1 µM (inactive)
GI50 (LOX IMVI): 50.6 µM (inactive)
GI50 (Malme-3M): 92.3 µM (inactive)
GI50 (A498): 89.7 µM (inactive)
GI50 (SNB-75): 19.6 µM (inactive)
GI50 (HCC 2998): > 100 µM (inactive)
GI50 (CCRF-CEM): 64.4 µM (inactive)
GI50 (HT-29): 36.1 µM (inactive)
GI50 (786-0): 21.7 µM (inactive)
GI50 (NCI-H226): 93.5 µM (inactive)
GI50 (A549): 41.3 µM (inactive)
GI50 (UO-31): 84.7 µM (inactive)
GI50 (TK-10): 55.7 µM (inactive)
GI50 (NCI-H23): 45.7 µM (inactive)
GI50 (SW-620): > 10 µM (inactive)
GI50 (RXF 393): 13.9 µM (inactive)

COc1cc(CNc2ccc(C)cc2)cc(OC)c1OC
GI50 (SK-OV-3): 0.301 µM (active)
GI50 (SK-MEL-2): 0.229 µM (active)
GI50 (HL-60): 0.0764 µM (active)
GI50 (SR): 0.138 µM (active)
GI50 (SF-268): 0.741 µM (active)
GI50 (K562): 0.0826 µM (active)
GI50 (DLD-1): 0.45 µM (active)
GI50 (U-251): 0.356 µM (active)
GI50 (HOP-92): 3.34 µM (inactive)
GI50 (KM-20L2): 0.246 µM (active)
GI50 (RPMI-8226): 0.467 µM (active)
GI50 (OVCAR-8): 0.624 µM (active)
GI50 (NCI-H522): 0.255 µM (active)
GI50 (OVCAR-3): 0.213 µM (active)
GI50 (SNB-19): 0.533 µM (active)
GI50 (DMS-114): 0.277 µM (active)
GI50 (XF498): 0.962 µM (active)
GI50 (DMS-273): 0.103 µM (active)
GI50 (LXFL 529): 0.635 µM (active)
GI50 (COLO 205): 0.219 µM (active)
GI50 (IGROV-1): 0.659 µM (active)
GI50 (SK-MEL-5): 0.472 µM (active)
GI50 (NCI-H460): 0.252 µM (active)
GI50 (MOLT-4): 0.331 µM (active)
GI50 (HOP-62): 0.386 µM (active)
GI50 (M19-MEL): 0.33 µM (active)
GI50 (LOX IMVI): 0.621 µM (active)
GI50 (SNB-75): 0.316 µM (active)
GI50 (CCRF-CEM): 0.252 µM (active)
GI50 (786-0): 0.384 µM (active)
GI50 (A549): 0.5 µM (active)
GI50 (UO-31): 0.807 µM (active)
GI50 (NCI-H23): 0.361 µM (active)
GI50 (SW-620): 0.149 µM (active)
GI50 (OVCAR-5): 1.74 µM (inactive)
GI50 (RXF 393): 0.163 µM (active)
